Measurements published in US8940793B2, “4-[(haloalkyl)(dimethyl)ammonio]butanoates and use thereof in the treatment of cardiovascular disease” (JSC Grindeks, priority 2011, dated 2015).
Marks after values point to notes of the source that are not given here.

Columns and labels:
isolated rat heart = assay: Isolated rat heart infarction study after oral treatment (cardioprotective activity); assay type: in vivo, Wistar rats; details: for Infarct size, % of control: 20 mg/kg p.o. daily, after 2 weeks of treatment (method: 8 weeks), hearts excised 24 h after last dose, 60 min occlusion, 150 min reperfusion, mean ± s.e.m. of 9-10 animals; for Therapeutical (cardioprotective) effect, in words / Decrease of infarct size: 20 mg/kg p.o., isolated rat heart infarction model; for Decrease of infarct size: versus control
Protocol: Fifty male, 10 weeks old Wistar rats weighing 200-250 g were housed under standard conditions (21-23° C., 12 h light-dark cycle) with unlimited access to food (R3 diet, Lactamin AB, Sweden) and water.
(§1) Rats were adapted to local conditions for two weeks before the start of treatment. Meldonium dihydrate at a dose of 20 mg/kg, gamma-butyrobetaine at a dose of 20 mg/kg and 4-[(chloromethyl)(dimethyl) ammonio]butanoate at dose of 20 mg/kg were administered p.o. daily for 8 weeks. Control rats received water.
The isolated rat heart experiment was performed essentially as described earlier (Liepinsh et al., J. Cardiovasc. Pharmacol. 2006; 48(6):314-9). Twenty-four hours after the last drug administration hearts were excised and retrogradely perfused via the aorta at a constant pressure with oxygenated Krebs-Henseleit buffer at 37° C. The heart rate, left ventricle end-diastolic pressure and left ventricle developed pressure were continuously recorded. Coronary flow was measured using an ultrasound flow detector (HSE) and the PowerLab 8/30 system from ADInstruments. The hearts were perfused for 20 min to stabilize the hemodynamic functions and then occlusion was performed for 60 min by constricting threads through a plastic tube. Successful occlusion was confirmed by a coronary flow decrease of about 40 percent. Reperfusion was achieved by releasing the threads. At the end of the 150-min reperfusion period, the risk zone was delineated with 0.1% methylene blue. The hearts were then sectioned transversely from the apex to the base in five slices 2 mm in thickness and incubated in 1% triphenyltetrazolium chloride in phosphate buffer (pH 7.4, 37° C.) for 10 min to stain viable tissue red and necrotic tissue white. Computerized planemetric analysis of Sony A900 photographs was performed using Image-Pro Plus 6.3 software to determine the area at risk and area of necrosis expressed as a % of the left ventricle. The obtained values were then used to calculate the infarct size (IS) as a % of risk area according to the formula: Infarct Size=Area of Necrosis/Area at Risk×100%. Effects in Isolated Rat Heart Infarction Model
The anti-infarction effect of examined substances was investigated in an isolated rat heart infarction model. During occlusion of left coronary artery, the coronary flow in all experimental groups was decreased for 40% (from 11 ml/min to 7 ml/min). Moreover, the drop of developed left ventricular pressure for 50% was observed. […] In reperfusion stage, coronary flow, developed left ventricular pressure, ±dp/dt values were recovered till about 80% of control level. There were no significant differences between control and treatment groups.
Effects of Meldonium dihydrate (20 mg/kg), gamma-butyrobetaine (20 mg/kg) and 4-[(chloromethyl)(dimethyl) ammonio]butanoate (20 mg/kg) after 2 weeks of treatment on infarct size in the isolated rat heart infarction experiment are presented in Table 1.
as §1, with “3-carboxy-N-(2-chloroethyl)-N,N-dimethylpropan-1-aminium chloride” for “4-[(chloromethyl)(dimethyl) ammonio]butanoate”
Effects of Meldonium dihydrate (20 mg/kg), gamma-butyrobetaine (20 mg/kg) and 3-carboxy-N-(2-chloroethyl)-N,N-dimethylpropan-1-aminium chloride (20 mg/kg) after 2 weeks of treatment on infarct size in the isolated rat heart infarction experiment are presented in Table 2.
The same experimental conditions as above were used for testing 3-carboxy-N-(2-fluoroethyl)-N,N-dimethylpropan-1-aminium chloride.
Effects of Meldonium dihydrate (20 mg/kg), gamma-butyrobetaine (20 mg/kg) and 3-carboxy-N-(2-fluoroethyl)-N,N-dimethylpropan-1-aminium chloride (20 mg/kg) after 2 weeks of treatment on infarct size in the isolated rat heart infarction experiment are presented in Table 3.

[1] = s.c.; cited from earlier work

| SMILES | Infarct size, % of control (isolated rat heart) | Therapeutical (cardioprotective) effect, in words (isolated rat heart) | Decrease of infarct size (isolated rat heart) [%] | melting point [°C] | LD50 [1] [mg/kg] |
| --- | --- | --- | --- | --- | --- |
| C[N+](C)(CCl)CCCC(=O)[O-] [4-[(chloromethyl)(dimethyl)ammonio]butanoate] | 65.2 ± 6.8*^,#,$ % of control | best therapeutical effect | 34.8 | 100.5 to 101 |  |
| C[N+](C)(CCF)CCCC(=O)O.[Cl-] [3-carboxy-N-(2-fluoroethyl)-N,N-dimethylpropan-1-aminium chloride] | 65.5 ± 9.1*^,#,$ % of control | best therapeutical effect | 34.5 |  |  |
| C[N+](C)(C)NCCC(=O)[O-] [Meldonium dihydrate, 3-(2,2,2-Trimethylhydrazinium) propionate dihydrate, reference compound] | 117.9 ± 7.9 % of control |  |  |  |  |
| C[N+](C)(C)CCCC(=O)[O-] [Gamma-butyrobetaine, γ-Butyrobetaine, reference compound] | 87.6 ± 11.4 % of control |  | ~12.4 |  | > 7000 |
| C[N+](C)(CCCl)CCCC(=O)O.[Cl-] [3-carboxy-N-(2-chloroethyl)-N,N-dimethylpropan-1-aminium chloride] | 59.9 ± 7.6*^,#,$ % of control | best therapeutical effect | 41.1 | 130 |  |
